Legend:
Female Balb/c mice = tested on: Female Balb/c mice; parameters: maximal reduction in paw edema: dose or concentration left out as unconfirmed; details: for maximal reduction in paw thickness (MOE) / dose at which the maximal effect was observed: i.p.; for maximal reduction in paw thickness (MOE): 3 hours after carrageenan, at the dose of maximal effect; for dose at which the maximal effect was observed: paw thickness
Procedure: The purpose of this study is to test in vivo the anti-inflammatory activity of the compounds in paw edema induced by injection of 1% carrageenan in the animal hind paw. Female Balb/c mice (20 g average body weight, Harlan, Israel) are anesthetized with a combination of xylazine and pentobarbitone diluted in sterile saline, 15 and 6 mg/kg i.p. respectively. Anesthetized mice are injected subcutaneously, in the subplantar region of one (right) paw with 0.05 ml of 1% w/v Carrageenan in sterile water. […] The test compounds, including known anti-inflammatory controls, are dissolved in CREMOPHOR EL®:ethanol and further diluted 1:20 or 1:50 in sterile saline prior to i.p. injection that takes place immediately before the carrageenan injection. Three hours after injection the animals are resedated following the previously described procedure. Paw thickness is measured using a dial thickness gauge (Spring-dial, constant low pressure gauge, Mitutoyo, TG/L-1, 0.01 mm) and paw volume is measured using a plethysmometer (model #7150, Ugo Basile, Italy). Paw Edema is expressed as the difference between the right treated and the left untreated paws of the same animal, either as Δ Paw Volume (ΔPV) in millimeters cube or as Δ Paw Thickness (ΔPT) in millimeters. Each group comprises at least 10 animals. […] At the end of the study, animals are euthanized with an i.p. injection of 100 mg/kg pentobarbitone.
The differences among various treatment groups are analyzed by analysis of variance (ANOVA) followed by post-hoc Fisher test. A value of p<0.05 is considered to be statistically significant.
For sake of comparison, known anti-inflammatory drugs such as Celecoxib and Dexamethasone yield respectively in the range of relevant doses 7% and 26% reduction in paw thickness at 0.1 mg/kg, 16% and 31% at 0.25 mg/kg and 24% and 33% at 0.5 mg/kg. […] It should be kept in mind that these commercially available drugs display serious side effects that prevent chronic uses without complementary protective medication.

ICR male mice = experiment: Tail flick model for acute peripheral pain, i.p.; assay type: in vivo, mouse
Procedure, shortened: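 Male ICR mice (≥6/group) dosed i.p. at 0.1–10 mg/kg in Cremophor EL:ethanol diluted 1:20 in saline; morphine HCl 5 mg/kg as positive control. Tail illuminated 2 cm from tip at set times post-dose; latency (s) recorded in duplicate. Read-outs: latency and % animals showing analgesia, mean±SE; ANOVA/Tukey or Fisher's exact test, p<0.05.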

Male Sprague Dawley rats = experiment: Effect on the cardiovascular system (MABP, heart rate); assay type: in vivo, rat
Procedure: The purpose of this study was to assess the safety of the test compounds in male Sprague Dawley rats (270-350 g, Harlan, Israel). The test compounds were dissolved in vehicle, diluted 1:20 in sterile saline and injected either i.v. or i.p. at doses ranging from 0.1 to 2 mg/kg for i.v. administration or 10 to 40 mg/kg for i.p. administration, in volumes of 0.5 ml/100 g body weight. Each treatment group was composed of at least 6 animals. A cannula (PE 50, Clay Adams, USA) was implanted into the femoral artery under halothane anesthesia (induction 4% and maintenance 1%)). The vein was cannulated for drug administration. The arterial cannula was attached to a pressure transducer (Ohmeda DT-XX USA). The transducer was connected to a data acquisition system (Biopac, USA). Recordings of the heart rate (HR), mean arterial blood pressure (MABP) and electrocardiogram (ECG lead 2) were taken for 20 minutes before treatment, for the establishment of a stable baseline, up to 60 minutes following injections of the test compounds. Animals were also connected to a temperature recorder through a rectal thermistor probe (YSI Model 400, USA) and rectal temperature was monitored along the duration of the study.
Differences between vehicle and treatments are compared by one-way ANOVA, followed by post-hoc Newman-Keuls tests (Prism software from Graphpad, San Diego).

[1] = 10 mg/kg i.p., 330 minutes (five and a half hours)
[2] = 20 mg/kg i.p., one hour follow-up

SMILES: CCCCCCC(C)(C)c1cc(OC)c(C2C=C(CO)C3CC2C3(C)C)c(OC)c1 (single isomer, unassigned; (+)) [HU-308, (+) {4-[4-(1,1-dimethylheptyl)-2,6-dimethoxy-phenyl]-6,6-dimethyl-bicyclo[3.1.1]hept-2-en-2-yl}-methanol, reference compound]
- maximal reduction in paw thickness (MOE) (Female Balb/c mice): about 28%
- dose at which the maximal effect was observed (Female Balb/c mice): 0.6 mg/kg

SMILES: CCCCCCC(C)(C)c1cc(O)c([C@H]2CC(=O)[C@H]3C[C@@H]2C3(C)C)c(OC(=O)CCC(=O)O)c1 [Compound R, (−)-4-{4-[1,1-Dimethyl-heptyl]-2-succinate-6-hydroxy-phenyl}-6,6-dimethyl-bicyclo[3.1.1]heptan-2-one]
- maximal reduction in paw edema (Female Balb/c mice; formulated in cosolvent): 31%
- maximal reduction in paw thickness (MOE) (Female Balb/c mice): 31%
- dose at which the maximal effect was observed (Female Balb/c mice): 0.5 mg/kg
- therapeutic index (Female Balb/c mice; paw edema, 0.5 mg/kg versus tolerated 40 mg/kg): at least 80
- % animals showing analgesia (ICR male mice; 10 mg/kg i.p., 90 minutes): 100%
- latency time (ICR male mice; 10 mg/kg i.p., 90 minutes): 8.5 s
- % animals showing increased analgesia (ICR male mice; [1]): 100%
- latency time (ICR male mice; [1]): 6.8 s
- % animals with increased resistance to pain (ICR male mice; 10 mg/kg i.p., all along the duration of the study (5.5 hours)): 100%
- analgesia compared with 5 mg/kg morphine (ICR male mice; 4 and 8 mg/kg i.p.): still twice better than 5 mg/kg morphine in generating analgesia
- amplitude of HR fluctuations (Male Sprague Dawley rats; 40 mg/kg i.p.): 10%
- average drop in HR (Male Sprague Dawley rats; 40 mg/kg i.p.): about 4 beats per minute
- reduction in MABP (Male Sprague Dawley rats; i.p., 40 mg/kg): ≤ 36 mmHg

SMILES: CCCCC(C)(C)c1cc(O)c(C2CC(=O)C3CC2C3(C)C)c(O)c1 (single isomer, unassigned; (-)) [Compound L, (−)-4-[4(1,1-Dimethyl-pentyl)-2,6-dihydroxy-phenyl]-6,6-dimethyl-bicyclo[3.1.1]heptan-2-one]
- maximal reduction in paw thickness (MOE) (Female Balb/c mice): 34%
- dose at which the maximal effect was observed (Female Balb/c mice): 0.25 mg/kg

SMILES: CCCCCCC(C)(C)c1cc(O)c(C2CC(=O)C3CC2C3(C)C)c(O)c1 (single isomer, unassigned; (-)) [Compound A, (−)-4-[4-(1,1-Dimethyl-heptyl)2,6-dihydroxy-phenyl]-6,6-dimethyl-bicyclo[3.1.1)heptan-2-one]
- maximal reduction in paw thickness (MOE) (Female Balb/c mice): 28%
- dose at which the maximal effect was observed (Female Balb/c mice): 2.5 mg/kg
- latency time (ICR male mice; 4 mg/kg i.p., thirty minutes): 4.9 s
- % animals showing analgesia (ICR male mice; 10 mg/kg i.p., 90 minutes): more than 80%
- latency time (ICR male mice; 10 mg/kg i.p., 90 minutes): 7.3 s
- % animals showing increased analgesia (ICR male mice; [1]): 80%
- latency time (ICR male mice; [1]): 4.9 s
- % animals showing increased analgesia (ICR male mice; 10 mg/kg i.p., initiation of the study): 100%
- analgesia (ICR male mice; 8 and 10 mg/kg i.p., 330 minutes): Significant analgesia was still evident
- maximal latency (ICR male mice; maximal tested dose 10 mg/kg i.p., 30 minutes): 7.1 s
- effect on heart rate (Male Sprague Dawley rats; 0.1 mg/kg i.v.): minor insignificant and transient decline in HR
- decrease in MABP (Male Sprague Dawley rats; 0.1 mg/kg i.v., 5 minutes post injection): 4 mmHg
- time for MABP back to baseline range (Male Sprague Dawley rats; 0.5 mg/kg i.v.): 30 min
- decrease in MABP (Male Sprague Dawley rats; 0.5 mg/kg i.v., 5 minutes): about 25 mmHg
- time for MABP back to baseline range (Male Sprague Dawley rats; 1 mg/kg i.v.): 45 min
- decrease in MABP (Male Sprague Dawley rats; 1 mg/kg i.v., 5 minutes): about 30 mmHg
- drop in HR (Male Sprague Dawley rats; [2]): about 17 beats per minute
- drop in HR from baseline (Male Sprague Dawley rats; [2]): 5%
- maximal drop in HR (Male Sprague Dawley rats; higher doses i.v.): about 80 beats per minute
- hypotension (decrease in MABP) (Male Sprague Dawley rats; i.p., up to 30 mg/kg): ≤ 15 mmHg
